Experimental data published in ChEMBL document CHEMBL2177079, “Free-Wilson and structural approaches to co-optimizing human and rodent isoform potency for 11β-hydroxysteroid dehydrogenase type 1 (11β-HSD1) inhibitors” (J Med Chem, 2012).

Columns and labels:
[1] = Lipophilicity, log D at pH 7.4; type: physicochemical; settings: buffer
[2] = biological target: 11-beta-hydroxysteroid dehydrogenase 1 (Mus musculus, UniProt P50172); assay: Inhibition of mouse 11beta-HSD1 by HTRF assay
[3] = Oral bioavailability in Han Wistar rat at 7.4 to 14.7 umol/kg; type: ADME, organism-based; settings: Han Wistar, in vivo
[4] = biological target: 11-beta-hydroxysteroid dehydrogenase 1 (Homo sapiens, UniProt P28845); assay: Inhibition of human 11beta-HSD1 by HTRF assay
Sequence of 11-beta-hydroxysteroid dehydrogenase 1 (Homo sapiens, UniProt P28845) (P28845 whole entry): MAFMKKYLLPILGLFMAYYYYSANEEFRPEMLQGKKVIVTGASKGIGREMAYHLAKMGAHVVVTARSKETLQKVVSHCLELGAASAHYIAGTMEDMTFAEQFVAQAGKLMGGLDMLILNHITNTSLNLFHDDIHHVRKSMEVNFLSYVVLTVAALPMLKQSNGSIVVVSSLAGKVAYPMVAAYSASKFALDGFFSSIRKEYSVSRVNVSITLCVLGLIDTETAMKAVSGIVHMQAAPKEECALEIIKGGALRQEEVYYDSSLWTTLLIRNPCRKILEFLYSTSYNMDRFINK

Sequence of 11-beta-hydroxysteroid dehydrogenase 1 (Mus musculus, UniProt P50172) (P50172 whole entry): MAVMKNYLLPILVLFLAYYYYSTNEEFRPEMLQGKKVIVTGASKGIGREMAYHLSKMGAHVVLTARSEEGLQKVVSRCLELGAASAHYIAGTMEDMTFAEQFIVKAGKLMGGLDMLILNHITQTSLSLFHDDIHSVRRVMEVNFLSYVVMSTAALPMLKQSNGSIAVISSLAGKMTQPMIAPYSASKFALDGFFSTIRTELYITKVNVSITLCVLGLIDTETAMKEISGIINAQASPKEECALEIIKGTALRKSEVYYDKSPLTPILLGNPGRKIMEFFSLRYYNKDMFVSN

Compound	logD [1]	IC50 [2] [nM]	bioavailability [3] [%]	IC50 [4] [nM]
CC(C)(CO)Nc1ncc(C(=O)N[C@H]2C3CC4CC2C[C@](O)(C4)C3)c(C2CCCC2)n1	2.5	32		
CC(C)(O)CNc1ncc(C(=O)N[C@H]2C3CC4CC2C[C@](O)(C4)C3)c(C2CC2)n1	1.5	31		
COCCNc1ncc(C(=O)N[C@H]2C3CC4CC2C[C@](O)(C4)C3)c(C2CCCC2)n1	2.4	73		
CC(=O)N1CCC(Nc2ncc(C(=O)N[C@H]3C4CC5CC3C[C@](O)(C5)C4)c(C3CCCC3)n2)CC1	1.9	84	46	
O=C(N[C@H]1C2CC3CC1C[C@](O)(C3)C2)c1cnc(N[C@@H]2CCOC2)nc1C1CCC1	2	37	99	
O=C(N[C@H]1C2CC3CC1C[C@](O)(C3)C2)c1cnc(NC2CCS(=O)(=O)CC2)nc1OC1CCC1	2.1	31		
C[C@H](O)CNc1ncc(C(=O)N[C@H]2C3CC4CC2C[C@](O)(C4)C3)c(C2CCCC2)n1	2	42		
O=C(N[C@H]1C2CC3CC1C[C@](O)(C3)C2)c1cnc(N[C@H]2CCNC2=O)nc1C1CCCC1	0.9	55		
CC(C)(O)CNc1ncc(C(=O)N[C@H]2C3CC4CC2C[C@](O)(C4)C3)c(C2CCCC2)n1	2.3	48	33	
CC(=O)N1CC[C@@H](Nc2ncc(C(=O)N[C@H]3C4CC5CC3C[C@](O)(C5)C4)c(C3CCCC3)n2)C1	1.8	50	18	
CC(C)(O)CNc1ncc(C(=O)N[C@H]2C3CC4CC2C[C@](O)(C4)C3)c(C2CCC2)n1	1.8		86	
O=C1CC[C@@H](Nc2ncc(C(=O)N[C@H]3C4CC5CC3C[C@](O)(C5)C4)c(C3CCCC3)n2)CN1	1.6	133		
O=C(N[C@H]1C2CC3CC1C[C@](O)(C3)C2)c1cnc(N[C@H]2CCOC2)nc1OC1CCC1	2.8	22	99	
O=C(N[C@H]1C2CC3CC1C[C@](O)(C3)C2)c1cnc(N[C@H]2CCOC2)nc1C1CC1	1.7		73	
CN(C)C(=O)CNc1ncc(C(=O)N[C@H]2C3CC4CC2C[C@](O)(C4)C3)c(C2CCCC2)n1	1.4	163		
O=C(N[C@H]1C2CC3CC1C[C@](O)(C3)C2)c1cnc(N[C@H]2CCC[C@H]2O)nc1C1CCCC1	2.7	36	17	
O=C(N[C@H]1C2CC3CC1C[C@](O)(C3)C2)c1cnc(N[C@@H]2CCOC2)nc1C1CC1	1.6			
O=C(N[C@H]1C2CC3CC1C[C@](O)(C3)C2)c1cnc(NCCO)nc1C1CCCC1	1.8	179		
O=C(N[C@H]1C2CC3CC1C[C@](O)(C3)C2)c1cnc(NC2CCOCC2)nc1C1CCCC1	2.6	38		
O=C(N[C@H]1C2CC3CC1C[C@](O)(C3)C2)c1cnc(N[C@@H]2CCOC2)nc1C1CCCC1	2.4	25	63	21

Compound	logD [1]	IC50 [2] [nM]	bioavailability [3] [%]	IC50 [4] [nM]
CC(C)(CO)Nc1ncc(C(=O)N[C@H]2C3CC4CC2C[C@](O)(C4)C3)c(C2CC2)n1	1.8	20		
O=C1C[C@H](CNc2ncc(C(=O)N[C@H]3C4CC5CC3C[C@](O)(C5)C4)c(C3CCCC3)n2)CN1	1.4	85	9	
O=C(N[C@H]1C2CC3CC1C[C@](O)(C3)C2)c1cnc(NC2COC2)nc1C1CCCC1	2.1	66		
O=C(N[C@H]1C2CC3CC1C[C@](O)(C3)C2)c1cnc(NC2CCOCC2)nc1C1CC1	1.8	22	53	
O=C(N[C@H]1C2CC3CC1C[C@](O)(C3)C2)c1cnc(NC2CCS(=O)(=O)CC2)nc1C1CCCC1	1.6	64		
O=C(N[C@H]1C2CC3CC1C[C@](O)(C3)C2)c1cnc(N[C@H]2CCOC2)nc1C1CCC1	1.8	42	82	
CC(C)Oc1nc(N[C@@H]2CCOC2)ncc1C(=O)N[C@H]1C2CC3CC1C[C@](O)(C3)C2	2.7		62	
CC(C)Oc1nc(N[C@H]2CCOC2)ncc1C(=O)N[C@H]1C2CC3CC1C[C@](O)(C3)C2	2.5		83	
O=C(N[C@H]1C2CC3CC1C[C@](O)(C3)C2)c1cnc(NC[C@H]2CCCO2)nc1C1CCCC1	2.8	42		
O=C(N[C@H]1C2CC3CC1C[C@](O)(C3)C2)c1cnc(NC2CCOCC2)nc1OC1CCC1	3.2	19	83	
CC(C)Oc1nc(NC2COC2)ncc1C(=O)N[C@H]1C2CC3CC1C[C@](O)(C3)C2	2.2	53	57	
O=C(N[C@H]1C2CC3CC1C[C@](O)(C3)C2)c1cnc(NCCO)nc1C1CCC1	1.3			
O=C(N[C@H]1C2CC3CC1C[C@](O)(C3)C2)c1cnc(N[C@@H]2CCOC2)nc1OC1CCC1	2.9	16	99	
C[C@@H](O)CNc1ncc(C(=O)N[C@H]2C3CC4CC2C[C@](O)(C4)C3)c(C2CCCC2)n1	2	67	68	
O=C(N[C@H]1C2CC3CC1C[C@](O)(C3)C2)c1cnc(NC[C@@H]2CCCO2)nc1C1CCCC1 (single isomer, unassigned)	2.7	25		
O=C(N[C@H]1C2CC3CC1C[C@](O)(C3)C2)c1cnc(NCCO)nc1OC1CCC1	2.5	31	51	
O=C(N[C@H]1C2CC3CC1C[C@](O)(C3)C2)c1cnc(NC2COC2)nc1C1CC1	1.1	38		
O=C(N[C@H]1C2CC3CC1C[C@](O)(C3)C2)c1cnc(NC2COC2)nc1OC1CCC1	2.6	33	19	
O=C(N[C@H]1C2CC3CC1C[C@](O)(C3)C2)c1cnc(NC2CCS(=O)(=O)CC2)nc1C1CCC1	1.1			
